The results in this text go back to patent publication US20240043404A1 (AbbVie Inc., priority 2009, published 2024).

This experiment deals with RS4;11 cells. The experiment in a line: RS4;11 cell viability assay (CellTiter Glo).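 Note: acute lymphoblastic leukemia line RS4,11, EC50 derived from percentage of viable cells after treatment relative to untreated controls, cell killing taken as a measure of Bcl-2 inhibition.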 Format: cell-based, human. The conditions noted are these: Homo sapiens, RS4-11, 48 h, 50,000 cells per well, 10% human serum, 48 hours; read-out: RS4; 11 EC50 Values.
Procedure: The acute lymphoblastic leukemia (ALL) cell line RS4;11 was used as the primary human cell line to assess the cellular activity of Bcl-2 selective agents in vitro and their efficacy in vivo.
Cell cytotoxicity EC50 values were assessed using CellTiter Glo (Promega) according to the manufacturer's recommendations. The EC50 values were determined as a percentage of viable cells following treatment compared to the untreated control cells.
For the compound `CC1(C)CCC(CN2CCN(c3ccc(C(=O)NS(=O)(=O)c4cnc(OC[C@H]5CN(CC#N)CCO5)c(Cl)c4)c(Oc4cnc5[nH]ccc5c4)c3)CC2)=C(c2ccc(Cl)cc2)C1` [Example 246, N-[(5-chloro-6-{[(2R)-4-(cyanomethyl)morpholin-2-yl]methoxy}pyridin-3-yl)sulfonyl]-4-(4-{[2-(4-chlorophenyl)-4,4-dimethylcyclohex-1-en-1-yl]methyl}piperazin-1-yl)-2-(1H-pyrrolo[2,3-b]pyridin-5-yloxy)benzamide], the EC50 was determined as 402 nM. On to `COC1(C)CCC(c2ccc(Cl)cc2)=C(CN2CCN(c3ccc(C(=O)NS(=O)(=O)c4ccc(NCC5CCOCC5)c([N+](=O)[O-])c4)c(Oc4cnc5[nH]ccc5c4)c3)CC2)C1` (stereo not shown) [Example 378, 4-(4-{[2-(4-chlorophenyl)-5-methoxy-5-methylcyclohex-1-en-1-yl]methyl}piperazin-1-yl)-N-({3-nitro-4-[(tetrahydro-2H-pyran-4-ylmethyl)amino]phenyl}sulfonyl)-2-(1H-pyrrolo[2,3-b]pyridin-5-yloxy)benzamide], for which the EC50 stood at 6.76 nM. In the case of `CC1(C)CCC(CN2CCN(c3ccc(C(=O)NS(=O)(=O)c4ccc(OCC5CCOCC5)c([N+](=O)[O-])c4)c(Oc4cnc5[nH]ccc5c4)c3)CC2)=C(c2ccc(Cl)cc2)C1` [Example 24, 4-(4-{[2-(4-chlorophenyl)-4,4-dimethylcyclohex-1-en-1-yl]methyl}piperazin-1-yl)-N-{[3-nitro-4-(tetrahydro-2H-pyran-4-ylmethoxy)phenyl]sulfonyl}-2-(1H-pyrrolo[2,3-b]pyridin-5-yloxy)benzamide], the EC50 worked out at 9.83 nM. On to `CC1(C)CCC(CN2CCN(c3ccc(C(=O)NS(=O)(=O)c4ccc(NCC5CN(C6COC6)CCO5)c(S(=O)(=O)C(F)(F)F)c4)c(Oc4cnc5[nH]ccc5c4)c3)CC2)=C(c2ccc(Cl)cc2)C1` (stereo not shown) [Example 241, 4-(4-{[2-(4-chlorophenyl)-4,4-dimethylcyclohex-1-en-1-yl]methyl}piperazin-1-yl)-N-({4-({[4-(oxetan-3-yl)morpholin-2-yl]methyl}amino)-3-[(trifluoromethyl)sulfonyl]phenyl}sulfonyl)-2-(1H-pyrrolo[2,3-b]pyridin-5-yloxy)benzamide], for which the EC50 is 114 nM. The value for `CC1(C)CCC(CN2CCN(c3ccc(C(=O)NS(=O)(=O)c4ccc(OCC5(F)CCN(S(C)(=O)=O)CC5)c([N+](=O)[O-])c4)c(Oc4cnc5[nH]ccc5c4)c3)CC2)=C(c2ccc(Cl)cc2)C1` [Example 194, 4-(4-{[2-(4-chlorophenyl)-4,4-dimethylcyclohex-1-en-1-yl]methyl}piperazin-1-yl)-N-[(4-{[4-fluoro-1-(methylsulfonyl)piperidin-4-yl]methoxy}-3-nitrophenyl)sulfonyl]-2-(1H-pyrrolo[2,3-b]pyridin-5-yloxy)benzamide] was 8.19 nM; that for `O=C(NS(=O)(=O)c1ccc(NCC2CN(C3CC3)CCO2)c([N+](=O)[O-])c1)c1ccc(N2CCN(CC3=C(c4ccc(Cl)cc4)CC4(CC3)CC4)CC2)cc1Oc1cnc2[nH]ccc2c1` (stereo not shown) [Example 330, 4-(4-{[5-(4-chlorophenyl)spiro[2.5]oct-5-en-6-yl]methyl}piperazin-1-yl)-N-[(4-{[(4-cyclopropylmorpholin-2-yl)methyl]amino}-3-nitrophenyl)sulfonyl]-2-(1H-pyrrolo[2,3-b]pyridin-5-yloxy)benzamide] was 9.78 nM. The value for `CC1(C)CCC(CN2CCN(c3ccc(C(=O)NS(=O)(=O)c4ccc(OCC5COCCN5C(=O)OC(C)(C)C)c([N+](=O)[O-])c4)c(Oc4cnc5[nH]ccc5c4)c3)CC2)=C(c2ccc(Cl)cc2)C1` (stereo not shown) [Example 77, tert-butyl 3-{[4-({[4-(4-{[2-(4-chlorophenyl)-4,4-dimethylcyclohex-1-en-1-yl]methyl}piperazin-1-yl)-2-(1H-pyrrolo[2,3-b]pyridin-5-yloxy)benzoyl]amino}sulfonyl)-2-nitrophenoxy]methyl}morpholine-4-carboxylate] was 762 nM; that for `CN(C)CC(=O)N1CCC(COc2ccc(S(=O)(=O)NC(=O)c3ccc(N4CCN(CC5=C(c6ccc(Cl)cc6)CC(C)(C)CC5)CC4)cc3Oc3cnc4[nH]ccc4c3)cc2Cl)CC1` [Example 295, N-[(3-chloro-4-{[1-(N,N-dimethylglycyl)piperidin-4-yl]methoxy}phenyl)sulfonyl]-4-(4-{[2-(4-chlorophenyl)-4,4-dimethylcyclohex-1-en-1-yl]methyl}piperazin-1-yl)-2-(1H-pyrrolo[2,3-b]pyridin-5-yloxy)benzamide] was 14.8 nM; that for `CC1(C)CCC(CN2CCN(c3ccc(C(=O)NS(=O)(=O)c4ccc(NCC5COCCO5)c([N+](=O)[O-])c4)c(Oc4cnc5[nH]ccc5c4)c3)CC2)=C(c2ccc(Cl)cc2)C1` (stereo not shown) [Example 25, 4-(4-{[2-(4-chlorophenyl)-4,4-dimethylcyclohex-1-en-1-yl]methyl}piperazin-1-yl)-N-({4-[(1,4-dioxan-2-ylmethyl)amino]-3-nitrophenyl}sulfonyl)-2-(1H-pyrrolo[2,3-b]pyridin-5-yloxy)benzamide] was 7 nM. As for `CC1(C)CCC(CN2CCN(c3ccc(C(=O)NS(=O)(=O)c4ccc(NCC5CCOCC5)c(C#N)c4)c(Oc4cnc5[nH]ccc5c4)c3)CC2)=C(c2ccc(Cl)cc2)C1` [Example 110, 4-(4-{[2-(4-chlorophenyl)-4,4-dimethylcyclohex-1-en-1-yl]methyl}piperazin-1-yl)-N-({3-cyano-4-[(tetrahydro-2H-pyran-4-ylmethyl)amino]phenyl}sulfonyl)-2-(1H-pyrrolo[2,3-b]pyridin-5-yloxy)benzamide], the EC50 came out at 536 nM. The value for `CC1(C)CCC(CN2CCN(c3ccc(C(=O)NS(=O)(=O)c4ccc(OCC5CCN(C6COC6)CC5)c(Cl)c4)c(Oc4cnc5[nH]ccc5c4)c3)CC2)=C(c2ccc(Cl)cc2)C1` [Example 309, N-[(3-chloro-4-{[1-(oxetan-3-yl)piperidin-4-yl]methoxy}phenyl)sulfonyl]-4-(4-{[2-(4-chlorophenyl)-4,4-dimethylcyclohex-1-en-1-yl]methyl}piperazin-1-yl)-2-(1H-pyrrolo[2,3-b]pyridin-5-yloxy)benzamide] was 52.4 nM; that for `CO[C@H]1CC[C@@H](COc2ncc(S(=O)(=O)NC(=O)c3ccc(N4CCN(CC5=C(c6ccc(Cl)cc6)CC(C)(C)CC5)CC4)cc3Oc3cnc4[nH]ccc4c3)cc2C(F)(F)F)CC1` [Example 301, 4-(4-{[2-(4-chlorophenyl)-4,4-dimethylcyclohex-1-en-1-yl]methyl}piperazin-1-yl)-N-({6-[(cis-4-methoxycyclohexyl)methoxy]-5-(trifluoromethyl)pyridin-3-yl}sulfonyl)-2-(1H-pyrrolo[2,3-b]pyridin-5-yloxy)benzamide] was more than 1000 nM; that for `CC1(C)CCC(CN2CCN(c3ccc(C(=O)NS(=O)(=O)c4cnc(OC[C@@H]5CCN(C(CF)CF)C5)c(Cl)c4)c(Oc4cnc5[nH]ccc5c4)c3)CC2)=C(c2ccc(Cl)cc2)C1` [Example 280, N-[(5-chloro-6-{[(3R)-1-(1,3-difluoropropan-2-yl)pyrrolidin-3-yl]methoxy}pyridin-3-yl)sulfonyl]-4-(4-{[2-(4-chlorophenyl)-4,4-dimethylcyclohex-1-en-1-yl]methyl}piperazin-1-yl)-2-(1H-pyrrolo[2,3-b]pyridin-5-yloxy)benzamide] was 459 nM. With `COCCN1CCCC(CNc2ccc(S(=O)(=O)NC(=O)c3ccc(N4CCN(CC5=C(c6ccc(Cl)cc6)CC(C)(C)CC5)CC4)cc3Oc3cnc4[nH]ccc4c3)cc2[N+](=O)[O-])C1` (stereo not shown) [Example 228, 4-(4-{[2-(4-chlorophenyl)-4,4-dimethylcyclohex-1-en-1-yl]methyl}piperazin-1-yl)-N-{[4-({[1-(2-methoxyethyl)piperidin-3-yl]methyl}amino)-3-nitrophenyl]sulfonyl}-2-(1H-pyrrolo[2,3-b]pyridin-5-yloxy)benzamide], the EC50 was more than 1000 nM. For the compound `COc1cccc(CNc2ccc(S(=O)(=O)NC(=O)c3ccc(N4CCN(CC5=C(c6ccc(Cl)cc6)CC(C)(C)CC5)CC4)cc3Oc3cnc4[nH]ccc4c3)cc2[N+](=O)[O-])c1` [Example 176, 4-(4-{[2-(4-chlorophenyl)-4,4-dimethylcyclohex-1-en-1-yl]methyl}piperazin-1-yl)-N-({4-[(3-methoxybenzyl)amino]-3-nitrophenyl}sulfonyl)-2-(1H-pyrrolo[2,3-b]pyridin-5-yloxy)benzamide], the EC50 worked out at 134 nM. As for `CC1(C)CCC(CN2CCN(c3ccc(C(=O)NS(=O)(=O)c4cnc(OCC5COCCO5)c(Br)c4)c(Oc4cnc5[nH]ccc5c4)c3)CC2)=C(c2ccc(Cl)cc2)C1` (stereo not shown) [Example 50, N-{[5-bromo-6-(1,4-dioxan-2-ylmethoxy)pyridin-3-yl]sulfonyl}-4-(4-{[2-(4-chlorophenyl)-4,4-dimethylcyclohex-1-en-1-yl]methyl}piperazin-1-yl)-2-(1H-pyrrolo[2,3-b]pyridin-5-yloxy)benzamide], the EC50 stood at 313 nM.

With `CC1(C)CCC(CN2CCN(c3ccc(C(=O)NS(=O)(=O)c4ccc(N[C@H]5CCN(CC(F)F)C5)c([N+](=O)[O-])c4)c(Oc4cnc5[nH]ccc5c4)c3)CC2)=C(c2ccc(Cl)cc2)C1` [Example 182, 4-(4-{[2-(4-chlorophenyl)-4,4-dimethylcyclohex-1-en-1-yl]methyl}piperazin-1-yl)-N-[(4-{[(3S)-1-(2,2-difluoroethyl)pyrrolidin-3-yl]amino}-3-nitrophenyl)sulfonyl]-2-(1H-pyrrolo[2,3-b]pyridin-5-yloxy)benzamide], the EC50 stood at 123 nM. Then `CC1(C)CCC(CN2CCN(c3ccc(C(=O)NS(=O)(=O)c4ccc5ccccc5c4)c(Oc4cnc5[nH]ccc5c4)c3)CC2)=C(c2ccc(Cl)cc2)C1` [Example 14, 4-(4-{[2-(4-chlorophenyl)-4,4-dimethylcyclohex-1-en-1-yl]methyl}piperazin-1-yl)-N-(2-naphthylsulfonyl)-2-(1H-pyrrolo[2,3-b]pyridin-5-yloxy)benzamide], with 3890 nM; and `CC1(C)CCC(CN2CCN(c3ccc(C(=O)NS(=O)(=O)c4ccc(NCCC#N)c([N+](=O)[O-])c4)c(Oc4cnc5[nH]ccc5c4)c3)CC2)=C(c2ccc(Cl)cc2)C1` [Example 62, 4-(4-{[2-(4-chlorophenyl)-4,4-dimethylcyclohex-1-en-1-yl]methyl}piperazin-1-yl)-N-({4-[(2-cyanoethyl)amino]-3-nitrophenyl}sulfonyl)-2-(1H-pyrrolo[2,3-b]pyridin-5-yloxy)benzamide], with 25.1 nM.
